Tested on: E. multilocularis metacestodes
Assay: PGI assay: phosphoglucose isomerase release from damaged metacestodes
Assay type: cell-based, Echinococcus multilocularis
Settings: 10 μM, 5 days, single wells, relative to DB1127 (10 μM)
Procedure, shortened: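 E. multilocularis metacestode vesicles (strain H95, grown in BALB/c mice, 2–4 mm diameter) were exposed in vitro to compounds for 5 days. Damage was read as phosphoglucose isomerase released into the medium. Initial screening used 10 μM in single wells, with 0.1% DMSO as negative control. EC50 values were derived from this read-out.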

Compound	PGI (% of DB1127 at 10 uM) [%]
CCOC(=O)c1cn(CC)c2cc(N(C)CCc3ccc(OC)c(OC)c3)c(F)cc2c1=O [MMV665977]	-67.06
c1ccc(/C2=N/c3ccccc3/N=C(/c3ccccc3)c3ccccc32)cc1 [MMV007113]	13.66
CCOC(=O)c1c[nH]c2ccc(CC)cc2c1=O [MMV007116]	80.46
CN1CCN(c2nc(Nc3ccc(O)cc3)nc3ccccc23)CC1.Cl [MMV000986]	-4.90
CC(C)c1ccc(CNCC(O)c2ccccc2)cc1.Cl (stereo not drawn) [MMV001049]	12.43
OC1CCCCC1C1(NC(=S)Nc2ccccc2)CCCCC1 (stereo not drawn) [MMV665980]	-9.51
CCOC(=O)c1c(C)n(-c2ccccc2)c2ccc(OC(=O)c3cc(OC)c(OC)c(OC)c3)cc12 [MMV396664]	-2.70
COc1cc(OC)cc(N2C(=O)N(Cc3ccc(C(C)(C)C)cc3)c3ccccc3S2(=O)=O)c1 [MMV008173]	-29.78
Cc1c(C)n(CC(O)CNC2CCCCC2C)c2ccccc12 (stereo not drawn) [MMV665806]	5.77
Nc1nc(Nc2cccc(F)c2)nc2ccccc12 [MMV080034]	-19.84
CCCCOC(=O)c1ccc(Nc2cc(C)nc3ccc(OC)cc23)cc1 [MMV665797]	0.71
CCCCN(CCCC)S(=O)(=O)c1ccc(NC(=O)c2ccco2)cc1 [MMV007881]	-23.46
O=C(Nc1ccc(-c2nc3ccccc3[nH]2)cc1)c1ccc(Cl)c(Cl)c1 [MMV665840]	-1.75
CCCN(CCC)CC(O)COc1ccccc1C(=O)Nc1ccccc1 (stereo not drawn) [MMV006455]	-26.39
Cc1ccc(N2C(=O)C3C(C2=O)C2(c4ccccc4)C(=O)C3(c3ccccc3)C(c3ccccc3)=C2c2ccccc2)cc1 (stereo not drawn) [MMV666062]	-37.70
O=C(Nc1ccc(Cl)cc1C(=O)Nc1ccncc1)c1ccc(Cl)cc1Cl [MMV666057]	-78.23
CN(C)CCNc1cc(-c2ccccc2)nc2ccccc12 [MMV006704]	-13.50
C[n+]1c2ccccc2nc2ccc(NCCO)cc21 [MMV396693]	-18.69
CC(C)(C)CC(C)(C)NCC(O)COc1ccc2c(c1)CCC2.Cl (stereo not drawn) [MMV665817]	-44.11
Cc1ccc(C)c(Cn2c(N3CCC(C(=O)NCc4cccs4)CC3)nc3ccccc32)c1 [MMV019741]	-17.48
CCCCCCC(O)(c1ccc(F)cc1)C(CN1CCOCC1)c1ccccc1.Cl (stereo not drawn) [MMV000621]	-30.63

Compound	PGI (% of DB1127 at 10 uM) [%]
c1ccc2cc3c(Nc4ccc(N5CCOCC5)cc4)ccnc3cc2c1 [MMV006861]	-26.86
CCn1nc(-c2ccc(C(=O)OC)cc2)nc2c(=O)n(C)c(=O)nc1-2 [MMV306025]	-10.99
COc1ccc(C)c2sc(N(Cc3cccnc3)C(=O)c3ccc(C#N)cc3)nc12 [MMV001241]	-0.13
CCOc1c(Br)cc(C2C(C(=O)OC)=CN(C)C=C2C(=O)OC)cc1OC [MMV006764]	-0.44
CC(Oc1ccc(NC(=O)c2cccs2)cc1)C(=O)c1ccc(Cl)cc1 (stereo not drawn) [MMV665886]	2.30
Cc1ccc(F)cc1NC(=O)c1cc(Cl)ccc1Nc1ccccc1 [MMV007275]	1.44
CNCCCNc1ccnc2cc(Cl)ccc12 [MMV020500]	-31.62
CCCCNc1nc(NC(C)(C)C)nc(NC(C)(C)C)n1 [MMV665864]	-36.23
CC(C)=CCN1CCC(C(=O)Nc2ccc(-c3nc4ccccc4[nH]3)cc2)CC1 [MMV665946]	-26.45
COc1cccc(Nc2nc(N)c3ccccc3n2)c1.Cl [MMV019199]	-26.29
O=C(CCl)NCCOc1ccc(Cl)cc1Cl [MMV665927]	24.95
Oc1ccc(-c2nc(-c3ccc4oc5ccc(-c6[nH]c(-c7ccc(O)cc7)nc6-c6ccccc6)cc5c4c3)c(-c3ccccc3)[nH]2)cc1 [MMV000753]	-5.15
CCOC(=O)c1c(C)n(-c2ccc(Cl)cc2)c2ccc(OC(=O)C=Cc3ccccc3)cc12 [MMV666600]	-39.04
COc1ccc(-c2cn3c(C(=O)Nc4ccccc4Cl)c(-c4ccccc4)c4c3n2CCCC4)cc1 [MMV020403]	8.35
CCOC(=O)c1cnc2c(C)cc(C)cc2c1Nc1ccc(OC)c(OC)c1 [MMV008294]	-43.41
COc1ccc(CN2CCN(Cc3ccccc3)CC2)c(O)c1 [MMV665944]	-7.26
CC(C)(C)CC(C)(C)NCC(O)COc1ccc(Cl)cc1Cl (stereo not drawn) [MMV396794]	97.35
CCOC(=O)c1cnc2ccc(OC)cc2c1NCc1ccccc1 [MMV665813]	-12.77
Br.Cc1ccc(C)c(-c2csc(Nc3ccc(C)c(C)c3)n2)c1 [MMV007654]	3.26
O=C(O)C(=O)O.Oc1ccc(Br)cc1CN1CCN(Cc2cccc(F)c2)CC1 [MMV000356]	-18.68
COc1cc(-c2nc(-c3ccccc3)c(-c3ccccc3)[nH]2)cc(OC)c1O [MMV020750]	7.02

Compound	PGI (% of DB1127 at 10 uM) [%]
CCCc1c(C)nc2ccccc2c1O [MMV666081]	-67.20
Cc1ccc(CN2CCC(C(=O)Nc3ccc(-c4cc5ccccc5[nH]4)cc3)CC2)o1 [MMV666071]	-52.95
CN(C)c1ccc(-c2nc3ccc(N)cc3[nH]2)cc1 [MMV666102]	-14.14
COc1ccc(Nc2nc(N/N=C/c3ccc(O)cc3)nc(Nc3ccc([N+](=O)[O-])cc3)n2)cc1 [MMV666689]	5.99
COc1ccc(C(=O)NC(c2ccc(Cl)cc2Cl)c2cc(Cl)c3cccnc3c2O)cc1 (stereo not drawn) [MMV666054]	1.08
CN(C)c1ccc(N=Cc2ccc(N3CCOCC3)cc2)cc1 [MMV073843]	-14.14
O=C(Nc1ccccc1O)c1ccc(Oc2cccc(C(=O)Nc3ccccc3O)c2)cc1 [MMV665888]	-15.91
CN1CCN(c2ncnc3c2[nH]c2ccc(Cl)cc23)CC1 [MMV396704]	-24.85
CN(C)c1ccc(N2C(N)=NC(N)=NC2(C)C)cc1 [MMV667487]	-14.53
Cc1ccc(S(=O)(=O)c2c(COC(=O)c3cccc(C)c3)c(-c3ccccc3)nn2C)cc1 [MMV665936]	-18.54
COc1ccc(C(=O)Nc2ccc3nc(N4CCCCC4)cc(C)c3c2)cc1OC [MMV019758]	-36.67
CC(C)(C)c1ccc(C(=O)Nc2c3c(nn2-c2cccc(Cl)c2)CSC3)cc1 [MMV666123]	-7.56
Cc1ccc(Nc2nc(-c3ccccn3)cs2)cc1 [MMV007907]	-25.32
CCOC(=O)C1CCN(C(=O)CN2C(=O)c3ccccc3C2c2c[nH]c3ccccc23)CC1 (stereo not drawn) [MMV011576]	-33.19
Nc1ccc(-c2nc3cc(Cc4ccc5[nH]c(-c6ccc(N)cc6)nc5c4)ccc3[nH]2)cc1 [MMV665943]	9.49
CCOc1ccc2nc(C)cc(Nc3ccc(N(C)C)cc3)c2c1.Cl [MMV007020]	-3.98
CCN(CC)CCNc1ccnc2cc3ccccc3cc12 [MMV006303]	-4.34
CCOc1ccc2nc(C)cc(Nc3ccc(Br)cc3)c2c1 [MMV006522]	30.79
CCOC(=O)C1=C(C)N=c2sc(=Cc3cc(Cl)ccc3O)c(=O)n2C1c1ccc(OC)cc1 (stereo not drawn) [MMV665971]	-11.30
O=C(NNc1cc(N2CCCC2)nc(N2CCCC2)n1)c1ccccc1 [MMV396770]	-1.95
CN(N=O)C1=C(NC2CCCCC2)C(=O)c2ccccc2C1=O [MMV667492]	-5.36

Compound	PGI (% of DB1127 at 10 uM) [%]
O=C(NC(c1ccccc1)c1ccc2cccnc2c1O)c1ccccc1 (stereo not drawn) [MMV666080]	-67.16
COc1ccc2sc(N(Cc3cccnc3)C(=O)c3ccc(C#N)cc3)nc2c1 [MMV001239]	-2.38
O=C(Nc1ccccc1O)c1ccc(-c2ccc(Cl)cc2Cl)o1 [MMV665948]	-40.46
COc1ccc(C2=C(c3ccc(OC)cc3)C3(c4ccccc4)C(=O)C2(c2ccccc2)C2C(=O)N(c4ccc(C)cc4)C(=O)C23)cc1 (stereo not drawn) [MMV666101]	-51.33
COc1ccccc1C(=O)ON=C(N)Cc1cccc2ccccc12 [MMV666686]	1.82
Cn1c(=O)c2cc(C(=O)NCCCN3CCCCCC3)sc2c2ccccc21 [MMV019313]	-53.66
Cc1sc(NC(=O)c2ccco2)c(C(c2cccnc2)N2CCC(Cc3ccccc3)CC2)c1C (stereo not drawn) [MMV396663]	-1.97
Cc1ccc(OCCCCCCNCCO)c(C)c1 [MMV666020]	2.96
Oc1ccc(Cl)cc1CNc1nc2ccccc2[nH]1 [MMV665850]	-85.60
CC1(c2ccccc2)Nc2ccccc2-c2nc3ccccc3n21 (stereo not drawn) [MMV396715]	-22.40
FC(F)(F)c1ccc(Nc2nnnc3ccccc23)cc1 [MMV665935]	-27.43
Cl.Oc1ccccc1CNCC12CC3CC(CC(C3)C1)C2 [MMV020788]	-57.58
COc1ccc(Br)cc1C1Nc2ccc3ccccc3c2C2=C1C(=O)CC(c1ccccc1)C2 (stereo not drawn) [MMV020885]	-45.01
O=C(Nc1cccc(-c2nc3ccccc3[nH]2)c1)c1cccc(NC(=O)c2ccco2)c1 [MMV665883]	21.02
Cc1cc(N2CCN(C3CCCC3)CC2)n2c(nc3ccccc32)c1C#N [MMV006706]	-7.43
O=C1c2ccc3c4c(ccc(c24)C(=O)N1CCCCO)C(=O)N(CCCCO)C3=O [MMV009085]	-6.63
Cc1cc(NC(=O)c2ccc(-c3ccccc3)cc2)no1 [MMV018984]	6.32
Cc1ccccc1OCCSc1nc2ccc(NC(=O)c3ccccc3)cc2s1 [MMV007577]	-17.47
